From patent publication US20240409585A1, “MACROCYCLIC IMMUNOMODULATORS” (priority 2021, published 2024) come the findings set out here.

SMILES strings stand for the structures. Bridge positions count the residues as written; N and C are the ends. Square brackets hold non-standard residues; d marks the D form. Peptide text beside a SMILES is read from it. * marks the point of attachment. ξ: configuration not given here. Tyr(3-NO2) = N[C@@H](Cc1ccc(O)c([N+](=O)[O-])c1)C(=O)O; Bip = N[C@@H](Cc1ccc(-c2ccccc2)cc1)C(=O)O; Phe(3-OMe) = COc1cccc(C[C@H](N)C(=O)O)c1; Phe(3-Me) = Cc1cccc(C[C@H](N)C(=O)O)c1; d(aThr) = C[C@@H](O)[C@@H](N)C(=O)O; 3Pal = N[C@@H](Cc1cccnc1)C(=O)O; Cha = N[C@@H](CC1CCCCC1)C(=O)O; Cit = NC(=O)NCCC[C@H](N)C(=O)O; AllylGly = C=CC[C@H](N)C(=O)O; Carboxymethyl = O=C(O)C*; NMeA = CN[C@@H](C)C(=O)O; Dab = NCC[C@H](N)C(=O)O; Dap = NC[C@H](N)C(=O)O; ξC = NC(CS)C(=O)O

For this assay, the target named is T1, PE-labeled human PD-L1-Ig binding to Jurkat cell line over-expressing human PD-1 (Jurkat-PD-1) (Homo sapiens, UniProt Q15116).
T1 construct: expressed in transfected cells; host or cells: Jurkat
T1 sequence (Q15116 25-288): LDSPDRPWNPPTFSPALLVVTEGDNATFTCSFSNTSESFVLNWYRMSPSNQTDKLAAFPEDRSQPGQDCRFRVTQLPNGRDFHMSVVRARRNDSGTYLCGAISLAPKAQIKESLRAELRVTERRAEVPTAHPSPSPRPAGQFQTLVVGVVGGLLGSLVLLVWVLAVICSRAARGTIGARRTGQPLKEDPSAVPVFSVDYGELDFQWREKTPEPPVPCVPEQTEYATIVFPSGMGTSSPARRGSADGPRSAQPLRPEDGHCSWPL
In words: Jurkat-PD-1 Cell Binding High-Content Screening Assay (CBA): Method 1. Particulars: Jurkat-hPD-1 cells, PE-labeled PD-L1-Ig 20 nM final; read-out: Jurkat HPDL1 PD1 IC50 (uM) (Method 1).
With `COc1cccc(C[C@@H]2NC(=O)[C@H](CC(=O)O)NC(=O)[C@H](Cc3ccc(OCC(=O)O)cc3)NC(=O)[C@H](CN)NC(=O)CSC[C@@H](C(=O)N[C@@H](C)C(N)=O)NC(=O)[C@H]([C@@H](C)O)NC(=O)[C@H](C(C)C)NC(=O)[C@H](CC(C)C)NC(=O)[C@H](CCN)NC(=O)[C@@H](CC(C)C)NC(=O)[C@H](C)N(C)C(=O)[C@H](CCCNC(N)=O)NC(=O)[C@H](Cc3ccc(-c4ccccc4)cc3)NC(=O)[C@H](C(C)C)NC2=O)c1` [Compound 1448] ({CH2CO}-[Dap]Y(Carboxymethyl)D[Phe(3-OMe)]V[Bip][Cit][NMeA][dL][Dab]LVTCA-NH2; thioether N-14), the IC50 was 0.06 µM.
Next, `CC(C)C[C@@H]1NC(=O)[C@H](Cc2c[nH]c3ccccc23)NC(=O)[C@H](CC(=O)O)NC(=O)[C@H](Cc2ccc(O)cc2)NC(=O)[C@H](Cc2ccccc2)NC(=O)CSC[C@@H](C(=O)NCC(N)=O)NC(=O)[C@H](CO)NC(=O)[C@H](C(C)C)NC(=O)[C@H](CC(C)C)NC(=O)[C@H](CC(N)=O)NC(=O)[C@@H]([C@@H](C)O)NC(=O)[C@H](C)N(C)C(=O)[C@H](C(C)C)NC(=O)[C@H](Cc2ccc(-c3ccccc3)cc2)NC1=O` [Compound 1752] ({CH2CO}-FYDWL[Bip]V[NMeA][d(aThr)]NLVSCG-NH2; thioether N-14): 0.03 µM; `CC(C)C[C@@H]1NC(=O)[C@H](CCCNC(=N)N)NC(=O)[C@@H](Cc2ccccc2)NC(=O)[C@H](C)N(C)C(=O)[C@H](CCCNC(=N)N)NC(=O)[C@H](Cc2ccc(-c3ccccc3)cc2)NC(=O)[C@H](C(C)C)NC(=O)[C@H](Cc2c[nH]c3ccccc23)NC(=O)[C@H](CC(=O)O)NC(=O)[C@H](Cc2ccc(O)cc2)NC(=O)[C@H](CC(N)=O)NC(=O)CSC[C@@H](C(=O)N[C@@H](C)C(N)=O)NC(=O)[C@H](CO)NC(=O)[C@H](C(C)C)NC1=O` [Compound 1042] ({CH2CO}-NYDWV[Bip]R[NMeA][dF]RLVSCA-NH2; thioether N-14): 0.04 µM.
Next, `CC(C)C[C@H]1NC(=O)[C@H](C)N(C)C(=O)[C@H](C(C)C)NC(=O)[C@H](Cc2ccc(-c3ccccc3)cc2)NC(=O)[C@H](C(C)C)NC(=O)[C@H](Cc2c[nH]c3ccccc23)NC(=O)[C@H](CC(=O)O)NC(=O)[C@H](Cc2ccc(O)cc2)NC(=O)[C@H](CC(N)=O)NC(=O)CSC[C@@H](C(=O)N[C@@H](C)C(N)=O)NC(=O)[C@H]([C@@H](C)O)NC(=O)[C@H](C(C)C)NC(=O)[C@H](CC2CCCCC2)NC(=O)[C@H](CCCNC(=N)N)NC1=O` [Compound 1294] ({CH2CO}-NYDWV[Bip]V[NMeA][dL]R[Cha]VTCA-NH2; thioether N-14): 0.3 µM; `C=CC[C@H](NC(=O)C1CSCC(=O)N[C@@H](Cc2ccc(OCC(=O)O)cc2)C(=O)N[C@@H](CC=C)C(=O)N[C@@H](CC(=O)O)C(=O)N[C@@H](Cc2cccc(C)c2)C(=O)N[C@@H](CC(C)C)C(=O)N[C@@H](Cc2ccc(-c3ccccc3)cc2)C(=O)N[C@@H](C(C)C)C(=O)N(C)[C@@H](C)C(=O)N[C@H](CC(C)C)C(=O)N[C@@H](CC(N)=O)C(=O)N[C@@H](CC(C)C)C(=O)N[C@@H](C(C)C)C(=O)N[C@@H](CO)C(=O)N1)C(N)=O` (stereo partly drawn) [Compound 1884] ({CH2CO}-Y(Carboxymethyl)[AllylGly]D[Phe(3-Me)]L[Bip]V[NMeA][dL]NLVS[ξC][AllylGly]-NH2; thioether N-14): 0.03 µM; `CC(C)C[C@@H]1NC(=O)[C@H](CCN)NC(=O)[C@@H](CC(C)C)NC(=O)[C@H](C)N(C)C(=O)[C@H](CCCNC(N)=O)NC(=O)[C@H](Cc2ccc(-c3ccccc3)cc2)NC(=O)[C@H](C(C)C)NC(=O)[C@H](Cc2c[nH]c3ccccc23)NC(=O)[C@H](CC(=O)O)NC(=O)[C@H](Cc2ccc(O)c([N+](=O)[O-])c2)NC(=O)[C@H](Cc2cccnc2)NC(=O)CSC[C@@H](C(=O)N[C@@H](C)C(N)=O)NC(=O)[C@H]([C@@H](C)O)NC(=O)[C@H](C(C)C)NC1=O` [Compound 1338] ({CH2CO}-[3Pal][Tyr(3-NO2)]DWV[Bip][Cit][NMeA][dL][Dab]LVTCA-NH2; thioether N-14): 0.01 µM.
